Assay results from PubChem BioAssay (NCI).
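Briefly, cells in 96-well plates were exposed to five compound concentrations for 48 h, and endpoints were estimated by linear interpolation. At the TGI there is no net growth.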

Assays:
Test in all cases: DTP human tumour cell line panel, 48 h
HOP-92 NSCLC = tested on: HOP-92 NSCLC
SK-MEL-5 melanoma = tested on: SK-MEL-5 melanoma
OVCAR-3 ovarian = tested on: OVCAR-3 ovarian
SW-620 colon = tested on: SW-620 colon
SF-295 CNS = tested on: SF-295 CNS
KM12 colon = tested on: KM12 colon
ACHN renal = tested on: ACHN renal
UO-31 renal = tested on: UO-31 renal
COLO 205 colon = tested on: COLO 205 colon
IGROV1 ovarian = tested on: IGROV1 ovarian
PC-3 prostate = tested on: PC-3 prostate
HCC-2998 colon = tested on: HCC-2998 colon
HCT-116 colon = tested on: HCT-116 colon
OVCAR-4 ovarian = tested on: OVCAR-4 ovarian
HOP-62 NSCLC = tested on: HOP-62 NSCLC
T-47D breast = tested on: T-47D breast
MCF7 breast = tested on: MCF7 breast
HCT-15 colon = tested on: HCT-15 colon
RXF 393 renal = tested on: RXF 393 renal
NCI-H460 lung = tested on: NCI-H460 lung
HS 578T breast = tested on: HS 578T breast
SF-539 CNS = tested on: SF-539 CNS
SK-MEL-28 melanoma = tested on: SK-MEL-28 melanoma
MALME-3M melanoma = tested on: MALME-3M melanoma
K-562 leukemia = tested on: K-562 leukemia
EKVX NSCLC = tested on: EKVX NSCLC
UACC-257 melanoma = tested on: UACC-257 melanoma
MDA-MB-231 breast = tested on: MDA-MB-231 breast
CCRF-CEM leukemia = tested on: CCRF-CEM leukemia
RPMI-8226 leukemia = tested on: RPMI-8226 leukemia
CAKI-1 renal = tested on: CAKI-1 renal
LOX IMVI melanoma = tested on: LOX IMVI melanoma
HL-60(TB) leukemia = tested on: HL-60(TB) leukemia
SN12C renal = tested on: SN12C renal
SF-268 CNS = tested on: SF-268 CNS
HT29 colon = tested on: HT29 colon
DU-145 prostate = tested on: DU-145 prostate
NCI/ADR-RES ovarian = tested on: NCI/ADR-RES ovarian
SNB-75 CNS = tested on: SNB-75 CNS
SNB-19 CNS = tested on: SNB-19 CNS
MDA-MB-435 = tested on: MDA-MB-435
A498 renal = tested on: A498 renal
MOLT-4 leukemia = tested on: MOLT-4 leukemia
UACC-62 melanoma = tested on: UACC-62 melanoma
NCI-H522 lung = tested on: NCI-H522 lung
TK-10 renal = tested on: TK-10 renal
NCI-H23 lung = tested on: NCI-H23 lung
NCI-H226 lung = tested on: NCI-H226 lung
SR leukemia = tested on: SR leukemia
OVCAR-5 ovarian = tested on: OVCAR-5 ovarian
BT-549 breast = tested on: BT-549 breast
M14 melanoma = tested on: M14 melanoma
786-0 renal = tested on: 786-0 renal
A549 NSCLC = tested on: A549 NSCLC
OVCAR-8 ovarian = tested on: OVCAR-8 ovarian
SK-MEL-2 melanoma = tested on: SK-MEL-2 melanoma
SK-OV-3 ovarian = tested on: SK-OV-3 ovarian
U251 CNS = tested on: U251 CNS

O=C(/C(=C\I)c1ccccc1)c1ccccc1
TGI (HOP-92 NSCLC): 28.2 µM
TGI (SK-MEL-5 melanoma): 31.3 µM
TGI (OVCAR-3 ovarian): 5.71 µM
TGI (SW-620 colon): 9.93 µM
TGI (SF-295 CNS): 32.9 µM
TGI (KM12 colon): 8.09 µM
TGI (ACHN renal): 25.7 µM
TGI (UO-31 renal): 20.2 µM
TGI (COLO 205 colon): 11.9 µM
TGI (IGROV1 ovarian): 26.3 µM
TGI (PC-3 prostate): 7.38 µM
TGI (HCC-2998 colon): 16.1 µM
TGI (HCT-116 colon): 26.2 µM
TGI (OVCAR-4 ovarian): 17.7 µM
TGI (HOP-62 NSCLC): 13.7 µM
TGI (T-47D breast): 6.02 µM
TGI (MCF7 breast): 4.22 µM
TGI (HCT-15 colon): 9.37 µM
TGI (RXF 393 renal): 11.7 µM
TGI (NCI-H460 lung): 27.3 µM
TGI (HS 578T breast): 19.1 µM
TGI (SF-539 CNS): 35.1 µM
TGI (SK-MEL-28 melanoma): 5.88 µM
TGI (MALME-3M melanoma): 21.2 µM
TGI (K-562 leukemia): 26.7 µM
TGI (EKVX NSCLC): 32.3 µM
TGI (UACC-257 melanoma): 15.8 µM
TGI (MDA-MB-231 breast): 17.4 µM
TGI (CCRF-CEM leukemia): 54 µM
TGI (RPMI-8226 leukemia): > 21.2 µM
TGI (CAKI-1 renal): 3.07 µM
TGI (LOX IMVI melanoma): 29.9 µM
TGI (HL-60(TB) leukemia): 2.57 µM
TGI (SN12C renal): 34.9 µM
TGI (SF-268 CNS): > 46.2 µM
TGI (HT29 colon): 4.95 µM
TGI (DU-145 prostate): 19.2 µM
TGI (NCI/ADR-RES ovarian): 44.1 µM
TGI (SNB-75 CNS): > 39.5 µM
TGI (SNB-19 CNS): 23.1 µM
TGI (MDA-MB-435): 26.5 µM
TGI (A498 renal): 30.3 µM
TGI (MOLT-4 leukemia): 86.5 µM
TGI (UACC-62 melanoma): 12 µM
TGI (NCI-H522 lung): 22.5 µM
TGI (TK-10 renal): 29.8 µM
TGI (NCI-H23 lung): 25.9 µM
TGI (NCI-H226 lung): 53.5 µM
TGI (SR leukemia): 41 µM
TGI (OVCAR-5 ovarian): 33.1 µM
TGI (BT-549 breast): 30.3 µM
TGI (M14 melanoma): 30.5 µM
TGI (786-0 renal): 14.6 µM
TGI (A549 NSCLC): 49.2 µM
TGI (OVCAR-8 ovarian): 14.6 µM
TGI (SK-MEL-2 melanoma): 21.4 µM
TGI (SK-OV-3 ovarian): 32.3 µM
TGI (U251 CNS): 9.69 µM
